Measured values taken from patent publication US20120022121A1, “INDOLES, DERIVATIVES AND ANALOGS THEREOF AND USES THEREFOR” (priority 2007, published 2012).

What was measured:
MES-SA = test: Growth inhibition assay (96 h); type: cell-based; conditions: Homo sapiens, MES-SA (parental)
From the text: (§1) MTT (3-(4,5-dimethylthiazol-2-yl)-2,5-diphenyltetrazolium bromide) assay was also used for the leukemia cell lines. […] Cells were stained with SRB solution or MTT solution.

HEK293-pcDNA3-10 = test: Growth inhibition assay (96 h); type: cell-based, human; conditions: Homo sapiens, HEK293-pcDNA3-10 (control for BCRP)
From the text: as §1

HEK293-482R2 = test: Growth inhibition assay (96 h); type: cell-based, human
tubulin [1] = test: In vitro binding assay by spin column; parameters: species or system bovine; conditions: colchicine-binding site, 37° C., 1 h
tubulin [2] = tested on: T1, tubulin; test: In vitro binding assay by spin column; parameters: species or system bovine; conditions: vinblastine-binding site, 37° C., 1 h
T1 construct: IC50 of microtubule formation (tubulin polymerization); other: cell free, turbidity 340 nm, 40 min

CV-1 = test: Cell viability SRB assay, 96 h; type: cell-based; conditions: Cercopithecidae, CV-1 fibroblast cell line
Method: Cells were plated in 96-well plates at a density of 800-5,000 cells/well, depending on the cell line, in their required growth media containing 10% fetal bovine serum. Preliminary studies were performed with each cell line using a variety of cell densities and incubation times to determine appropriate seeding densities. The compound of interest was dissolved in DMSO, diluted in cell culture medium (final DMSO concentration was less than 0.5% v/v), and added to quadruplicate wells at final concentrations ranging from 0 to 100 μM. Control wells to which only drug-free vehicle was added were included as negative controls.
Cells were incubated for 96 hour at 37° C. in a humidified atmosphere containing 5% carbon dioxide.

Bcl-2 = test: Western blot of anti- and pro-apoptosis proteins; type: cell-based, human; conditions: LNCaP and PC-3, increasing concentration, 24 h
Method: (§2) Cell viability (LNCaP, PC-3 prostate, DU145, PPC-1, and TSU-Pr1 prostate cancer cell lines, HT-29 colon cancer cell line, and MCF-7 breast cancer cell line) was quantitated using the sulforhodamine B (SRB) assay after 96 h coincubation with different concentrations of compound in 96-well plates. Cell viability of leukemia cells (K562 and doxorubicin-resistant K562/Dox) was quantitated by MTT assay after 96 h coincubation with different concentrations of compound in 96-well plates. Drug-induced apoptosis was determined by anti-histone ELISA assay and DNA laddering. Cell cycle progression was assessed by propidium iodide staining and fluorescence-activated cell sorting (FACS) analysis. In vitro tubulin polymerization assay was determined by CytoDYNAMIX ScreenTM3 (CDS-03) kits according to the manufacturer's instructions. Anti-apoptosis protein (Bcl-2 and Bcl-xl) and pro-apoptosis protein (Bax) were examined in LNCaP and PC-3 after 24 h incubation with different concentrations of compound 13 by Western blot assay. In vivo PC-3 xenograft studies were conducted by i.v. dosing of 50 mg/kg, 100 mg/kg and 150 mg/kg for 2 weeks.
100 nM of compound 13 was incubated with LNCaP for 24 h and PC-3 for 48 h. […] The results are expressed as enrichment factor (Enrichment factor=OD of treated cells/OD from control cells). […]

LNCaP and PC-3 cells = test: DNA fragmentation by agarose gel electrophoresis; type: cell-based, human
Method: LNCaP and PC-3 cells were treated with different concentrations of drugs for different periods of time. At the end of the incubation, both floating and adherent cells were collected. […] DNA was visualized by ethidium bromide staining and UV transillumination.

Tubulin proteins = test: Tubulin polymerization in vitro (absorbance 340 nm); type: biochemical; conditions: 20 μM, 37° C., 30 minutes
Method: as §2, with “Anti-apoptosis protein (Bcl-2 and Bcl-xl) and pro-apoptosis protein (Bax) were examined in LNCaP and PC-3 after 24 h incubation with different concentrations of compound 13 by Western blot assay. In vivo PC-3 xenograft studies were conducted by i.v. dosing of 50 mg/kg, 100 mg/kg and 150 mg/kg for 2 weeks.” left out
Tubulin proteins (greater than 99% purity) were suspended (300 μg per sample) with 100 μl G-PEM buffer composed of 80 mM PIPES (piperazine-N,N′-bis(2-ethanesulfonic acid)), 2 mM MgCl2, 0.5 mM egtazic acid and 1.0 mM guanosine triphosphate (GTP), pH 6.9, plus 5% glycerol in the absence or presence of the compound 13 at 4° C. The sample mixture was transferred to the prewarmed 96-well plate and absorbance was detected each minute for 30 minutes at 340 nm at 37° C.

[3] = Subchronic toxicity in ICR mice; type: in vivo
From the text: The maximally tolerated dose (MTD) in the mouse was identified. […] Body weight changes and morbidity in treated animals were used as a direct measure of toxicity.

PC-3 xenograft = test: Antitumor activity in PC-3 xenograft; type: in vivo, Balb/c mice; conditions: 50, 100, or 150 mg/kg/d, 5 days on/2 days off
Method: PC-3 tumor cells (2×10^6 cells) were suspended in saline and injected S.C. in both flanks of recipient mice (n=15). Tumor size was measured every other day and volume calculated as V=π/6*(length)x(width)^2 (75). […] Tumor growth and body weight was monitored every other day for the remainder of the study.

| SMILES | IC50 (MES-SA) | IC50 (HEK293-pcDNA3-10) | resistance factor (ratio of IC50 resistant subline to parental cell line) (HEK293-482R2; HEK293-482R2 (BCRP) vs HEK293-pcDNA3-10) | IC50 (HEK293-482R2; Homo sapiens, HEK293-482R2, BCRP over-expressed, 96 h) | [3H]podophyllotoxin binding to tubulin (tubulin [1]) | displacement of [3H]vinblastine from tubulin (tubulin [2]) | IC50 (CV-1) | Bcl-2 level by Western blot (Bcl-2) | DNA fragmentation (LNCaP and PC-3 cells) | effect on tubulin polymerization (Tubulin proteins) | tolerability ([3]; 50, 100 and 200 mg/kg S.C., 4 weeks, 5-days on/2 days off) | morbidity or rate of gain in body weight vs control ([3]; 50 or 100 mg/kg S.C., 4 weeks) | less body weight gain as compared to control animals ([3]; highest dose (200 mg/kg) S.C., 4-week treatment) | tumor growth (PC-3 xenograft) |
| --- | --- | --- | --- | --- | --- | --- | --- | --- | --- | --- | --- | --- | --- | --- |
| COc1cc(C(=O)c2cccc(-c3cc4ccccc4[nH]3)c2)cc(OC)c1OC [Compound 68, [3-(1H-Indol-2-yl)-phenyl]-(3,4,5-trimethoxy-phenyl)-methanone] | 31.5 ± 2.9 nM | 13.5 ± 1.6 nM | (1.0) | 13.6 ± 1.3 nM | inhibited | not able to displace | – | – | – | – | – | – | – | – |
| O=C(c1cccc(-c2cc3ccccc3[nH]2)c1)c1cc2ccccc2[nH]1 [Compound 13, (1H-indol-2-yl)-[3-(1H-indol-2-yl)phenyl]methanone] | – | – | – | – | – | – | 78.3 ± 35 nM | decreased | induced DNA fragmentation | completely block | generally well tolerated | no significant difference | 20% | suppressed tumor growth in a dose-dependent manner |
